Legend:
Format in all cases: physicochemical
[1] = Effect of antioxidants on benzene levels in 10% w/v benzoyl peroxide formulations; settings: 10% w/v benzoyl peroxide plus antioxidant
Method: For benzoyl peroxide stability studies in glycerol, benzoyl peroxide was prepared in a stock suspension of 20% w/v in glycerol and mixed 1:1 with 20% w/v suspensions or v/v solutions of antioxidants in glycerol. For pH experiments, the same stock suspension of benzoyl peroxide was mixed 1:1 with a 50% glycerol solution with 200 mM buffering agent (Citrate buffer pH 3.0, Tris Buffer pH 7.0, or Tris Buffer pH 9.0) for final 75% glycerol solution. The final volume of all reactions was 100 μL in GC headspace vials with 10% solution benzoyl peroxide (10 mg) and 10% antioxidant or 100 mM buffering agent. Vials were immediately crimp sealed for incubation. For analysis, 4.9 mL of DMSO was added to make up the final volume to approximate 5 mL, crimp sealed, and gently vortexed to mix.
Benzene standard was diluted in DMSO for an 11-point calibration ranging from 10 ng/vial to 100 μg/vial. The coefficient of determination R^2 were greater than 0.999. Five (5) mL of DMSO was used for negative control samples.
(§1) The method USP <467> Residual Solvents Procedure A was modified from flame ionization detection (FID) to mass spectrometry (MS) detection for benzene in benzoyl peroxide products. The gas chromatography (GC) methods were also modified to allow shorter run time and the method was validated for addition of up to 500 mg benzoyl peroxide product or 200 ml glycerol. Identification of benzene was based on the retention time matching to certified reference standards and mass spectral m/z matching to benzene. Lower limit of detection (LLOD) was 10 ng (equivalent to 0.02 ppm in hand benzoyl peroxide products) and LLOQ was 25 μg. The measurement uncertainty was determined to be 20%.
(§2) 10% w/v benzoyl peroxide formulations were prepared. Various antioxidants were added to the formulations (10% w/v butylated hydroxytoluene (BHT), 10% w/v vitamin E acetate, or 5% w/v tert-butyl hydroquinone (TBHQ)+5% w/v BHT) to test whether these antioxidants could prevent or reduce formation of benzene under certain conditions. The various formulations were incubated at either 37° C., for up to two weeks or at 50° C., for up to two weeks. Benzene levels in each formulation were tested at various time points according to the protocols described in Example 1.

[2] = Effect of antioxidants added to FDA-approved benzoyl peroxide drug products on benzene levels; settings: antioxidant added to drug product, 50° C. for 2 days
Method: as §1, with “benzene.” for “benzene. Lower limit of detection (LLOD) was 10 ng (equivalent to 0.02 ppm in hand benzoyl peroxide products) and LLOQ was 25 μg. The measurement uncertainty was determined to be 20%.”

[3] = Effect of solvents on benzene levels in 10% w/v benzoyl peroxide formulations; settings: 10% benzoyl peroxide, 37° C. for 10 days, compared to formulations containing glycerol or NMP
Method: as §1, with “benzene.” for “benzene. Lower limit of detection (LLOD) was 10 ng (equivalent to 0.02 ppm in hand benzoyl peroxide products) and LLOQ was 25 μg. The measurement uncertainty was determined to be 20%.”
as §2, with “solvents” for “antioxidants”, “(water, dimethylsulfoxide (DMSO), glycerol. N-methyl-2-pyrrolidone (NMP))” for “(10% w/v butylated hydroxytoluene (BHT), 10% w/v vitamin E acetate, or 5% w/v tert-butyl hydroquinone (TBHQ)+5% w/v BHT)”

[4] = Benzene levels formed by crystalline benzoyl peroxide incubated at 50° C.; settings: 50° C. for up to 12 days
Method: as §1, with “benzene.” for “benzene. Lower limit of detection (LLOD) was 10 ng (equivalent to 0.02 ppm in hand benzoyl peroxide products) and LLOQ was 25 μg. The measurement uncertainty was determined to be 20%.”

| SMILES | levels of benzene formed in the formulations ([1]; 37° C. for up to two weeks) | levels of benzene formed in the formulations ([1]; 50° C. for up to two weeks) | levels of benzene formed in two FDA-approved drug products with antioxidant [2] | levels of benzene formed in the formulations [3] | also measured |
| --- | --- | --- | --- | --- | --- |
| Cc1cc(C(C)(C)C)c(O)c(C(C)(C)C)c1 [BHT, butylated hydroxytoluene] | most dramatic reduction | most dramatic reduction | reduce the degradation of benzoyl peroxide to benzene | – | – |
| C[S+](C)[O-] [DMSO, dimethylsulfoxide] | – | – | – | most dramatic reduction in, or complete prevention of, benzene levels | – |
| CC(C)(C)c1cc(O)ccc1O [TBHQ, tert-butyl hydroquinone] | – | – | reduce the degradation of benzoyl peroxide to benzene | – | – |
| O=C(OOC(=O)c1ccccc1)c1ccccc1 [crystalline benzoyl peroxide, benzoyl peroxide] | – | – | – | – | levels of benzene formed [4]: may be protected from forming benzene levels |
| CC(=O)Oc1c(C)c(C)c2c(c1C)CCC(C)(CCC[C@H](C)CCC[C@H](C)CCCC(C)C)O2 (stereo partly drawn) [vitamin E acetate] | reduced the levels of benzene | reduced the levels of benzene | – | – | – |
| O [water] | – | – | – | most dramatic reduction in, or complete prevention of, benzene levels | – |

Source: patent US20240299336A1, “SHELF-STABLE FORMULATIONS OF BENZOYL PEROXIDE AND METHODS OF PRODUCING SAME” (BLUE HILL TECHNOLOGIES LLC, priority 2022, published 2024)
